Assay results: the supplement of paper PMC10331698
± gives the standard deviation of the averaged measurements.

How the values were obtained:
Test in all cases: level (log10 ratio to DMSO vehicle control); higher = higher biomarker level / cell amount than vehicle control
[1] = compound: OCC(F)(F)OC(F)(F)C(F)(F)OC(F)(F)C(F)(F)OC(F)(F)CO [1H,1H,11H,11H-Perfluorotetraethylene glycol] (in DMSO)
Method: (§1)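 BioMAP Diversity Plus panel of 12 human primary cell co-culture systems (3C, 4H, LPS, SAg, BT, BF4T, BE3C, CASM3C, HDF3CGF, KF3CT, MyoF, Mphg). Compounds were added 1 h before stimulation and left for 24 h (MyoF 48 h; BT 72 h for soluble read-outs or 6 d for IgG). Biomarkers were read by ELISA, cytotoxicity by SRB, PBMC viability and proliferation by Alamar Blue. Each well value was divided by the mean of 8 DMSO control wells on the same plate and log10 transformed; duplicate blinded samples were tested at 4 concentrations.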

[2] = compound: O=C(O)C(F)(OC(F)(F)C(F)(OC(F)(F)C(F)(OC(F)(F)C(F)(F)C(F)(F)F)C(F)(F)F)C(F)(F)F)C(F)(F)F [Perfluoro-(2,5,8-trimethyl-3,6,9-trioxadodecanoic)acid] (in DMSO)
Method: as §1

[3] = compound: O=C(O)C(F)(F)OC(F)(F)C(F)(F)OC(F)(F)C(F)(F)OC(F)(F)C(F)(F)C(F)(F)C(F)(F)F [Perfluoro-3,6,9-trioxatridecanoic acid] (in DMSO); conditions: 6700 nM
Method: as §1

[4] = compound: O=C(O)CCC(F)(C(F)(F)F)C(F)(F)F [4,4-bis(Trifluoromethyl)-4-fluoropropanoic acid] (in DMSO)
Method: as §1

[5] = compound: C=C(C)C(=O)OCCC(F)(F)C(F)(F)C(F)(F)C(F)(F)C(F)(F)C(F)(F)C(F)(F)C(F)(F)F [8:2 Fluorotelomer methacrylate] (in DMSO)
Method: as §1

[6] = compound: O=C(O)C(F)(F)C(F)(F)C(F)(F)C(F)(F)C(F)(F)C(F)(F)C(F)(F)C(F)(F)F [Perfluorononanoic acid] (in DMSO)
Method: as §1

[7] = compound: O=C(O)C(F)(OC(F)(F)C(F)(F)C(F)(F)F)C(F)(F)F [Ammonium perfluoro-2-methyl-3-oxahexanoate] (in Water)
Method: as §1

[8] = compound: OCC(F)(F)C(F)(F)C(F)(F)C(F)F [1H,1H,5H-Perfluoropentanol] (in DMSO)
Method: as §1

CASM3C:PAI-I
level (log10) ([1]; 6700 nM): -0.0035 ± 0.012 | level (log10) ([1]; 20000 nM): 0.0005 ± 0.0035 | level (log10) ([1]; 60000 nM): 0.007 ± 0.0014 | level (log10) ([2]; 1100 nM): -0.002 ± 0.0014 | level (log10) ([2]; 3300 nM): -0.0005 ± 0.0035 | level (log10) ([2]; 10000 nM): 0.009 ± 0.0099 | level (log10) [3]: 0.0015 ± 0.005 | level (log10) ([4]; 6700 nM): 0.0075 ± 0.025 | level (log10) ([4]; 20000 nM): 0.007 ± 0.013 | level (log10) ([4]; 60000 nM): 0.0035 ± 0.0021 | level (log10) ([5]; 6700 nM): 0.001 ± 0.0014 | level (log10) ([5]; 20000 nM): 0.0065 ± 0.011 | level (log10) ([6]; 6700 nM): 0.0015 ± 0.011 | level (log10) ([6]; 20000 nM): -0.008 ± 0.017 | level (log10) ([7]; 6700 nM): -0.007 ± 0.0085 | level (log10) ([7]; 20000 nM): -0.0005 ± 0.0092 | level (log10) ([7]; 60000 nM): -0.0025 ± 0.013 | level (log10) ([8]; 6700 nM): -0.008 ± 0.0028 | level (log10) ([8]; 20000 nM): -0.0015 ± 0.0035 | level (log10) ([8]; 60000 nM): 0.005 ± 0.0071
